Values after ≈ are worked out from the molar mass of the structure shown. Positions of bridges follow the written chain, without caps; N, C: chain ends. Non-standard residues stand in square brackets, D forms with d. Residues, ends and D or L forms follow the SMILES beside them. Groups on a side chain read outwards from the residue. Chains are numbered I, II in the order given. *: point of attachment. X4 = CC(C)C[C@@H](NC(=O)CCCCCN)C(=O)NCCCC[C@@H](NC(=O)[C@@H](CC(C)C)NC(=O)CCCCCN)C(=O)*; Ahx = NCCCCCC(=O)O
Columns and labels:
A. baumannii ATCC 19606 = conditions: for MIC at pH 5.0, A. baumannii ATCC 19606: ATCC 19606, pH 5; for MIC at pH 7.4, A. baumannii ATCC 19606: ATCC 19606, pH 7.4; for MIC at pH 8.0, A. baumannii ATCC 19606: ATCC 19606, pH 8
[1] = tested on: S aureus COL (methicillin-resistant Staphylococcus aureus); conditions: for MIC at pH 5.0, S aureus COL: COL (methicillin-resistant, pH 5); for MIC at pH 7.4, S aureus COL: COL (methicillin-resistant, pH 7.4); for MIC at pH 8.0, S aureus COL: COL (methicillin-resistant, pH 8)
P. aeruginosa PAO1 = conditions: for MIC at pH 5.0, P. aeruginosa PAO1: PAO1, pH 5; for MIC at pH 7.4, P. aeruginosa PAO1: PAO1, pH 7.4; for MIC at pH 8.0, P. aeruginosa PAO1: PAO1, pH 8
K. pneumoniae NCTC 418 = conditions: for MIC at pH 5.0, K. pneumoniae NCTC 418: NCTC 418, pH 5; for MIC at pH 7.4, K. pneumoniae NCTC 418: NCTC 418, pH 7.4; for MIC at pH 8.0, K. pneumoniae NCTC 418: NCTC 418, pH 8
HEK293 cell line = type: cell-based; conditions: 48 h
Experimental: HEK 293 cell line were cultured and maintained in DMEM (Dulbeccos modified Eagle
medium, Sigma Aldrich) supplemented with 10% FBS (Sigma Aldrich) and 1%
penicillin/streptomycin. Cells were incubated in a humidified incubator at 37°C in the presence
HEK 293 cell were seeded into 96 well plates at the density of 2 × 10^3 cells/well and incubated
in DMEM containing 10% FBS for 10-14 hours at 37°C in the presence of 5% CO2. The next
day, stock solution of compounds were prepared at concentration of 2 mg/mL in DMEM
containing 10% FBS. 1/2 or 1/3 serial dilution of the peptide dendrimers from 2 mg/mL or 200
µg/mL were performed in DMEM containing 10% FBS. The medium was removed from cell
culture and replaced with the compounds at different concentration after washing with PBS.
The cells were incubated in DMEM containing 10% FBS at 37°C in the presence of 5% CO 2.
Negative control was untreated cell culture without compounds and blank control was wells
without cell but only medium. After 48 hours, a final concentration of 10% AlamarBlue®
(Thermo Fisher Scientific, Reinach, CH) was added to each well . The cells were incubated for
3-5 hours at 37°C with 5% CO 2. The fluorescence was then measured on a Tecan Infinite
M1000 Pro plate reader at λex = 560 nm and λem = 590 nm. The value was normalized
according to the untreated cells.

E. coli W3110 = conditions: for MIC at pH 5.0, E. coli W3110: W3110, pH 5; for MIC at pH 7.4, E. coli W3110: W3110, pH 7.4; for MIC at pH 8.0, E. coli W3110: W3110, pH 8

Structure (SMILES)	MIC at pH 5.0, A. baumannii ATCC 19606 (A. baumannii ATCC 19606) [μg/mL]	MIC at pH 7.4, A. baumannii ATCC 19606 (A. baumannii ATCC 19606) [μg/mL]	MIC at pH 8.0, A. baumannii ATCC 19606 (A. baumannii ATCC 19606) [μg/mL]	MIC at pH 5.0, S aureus COL [1] [μg/mL]	MIC at pH 7.4, S aureus COL [1] [μg/mL]	MIC at pH 8.0, S aureus COL [1] [μg/mL]	MIC at pH 5.0, P. aeruginosa PAO1 (P. aeruginosa PAO1)	MIC at pH 7.4, P. aeruginosa PAO1 (P. aeruginosa PAO1)	MIC at pH 8.0, P. aeruginosa PAO1 (P. aeruginosa PAO1)	MIC at pH 5.0, K. pneumoniae NCTC 418 (K. pneumoniae NCTC 418)	MIC at pH 7.4, K. pneumoniae NCTC 418 (K. pneumoniae NCTC 418)	MIC at pH 8.0, K. pneumoniae NCTC 418 (K. pneumoniae NCTC 418)	IC50 HEK293 (HEK293 cell line) [µg/mL]	MIC at pH 5.0, E. coli W3110 (E. coli W3110) [μg/mL]	MIC at pH 7.4, E. coli W3110 (E. coli W3110) [μg/mL]	MIC at pH 8.0, E. coli W3110 (E. coli W3110) [μg/mL]
CC(C)C[C@@H](NC(=O)[C@@H](CC(C)C)NC(=O)[C@@H](CCCCN)NC(=O)[C@@H](CCCCNC(=O)[C@@H](CC(C)C)NC(=O)[C@@H](CC(C)C)NC(=O)[C@@H](CCCCNC(=O)[C@@H](CC(C)C)NC(=O)[C@@H](CCCCN)NC(=O)[C@@H](CCCCNC(=O)[C@@H](CC(C)C)NC(=O)[C@H](N)CCCCN)NC(=O)[C@@H](CC(C)C)NC(=O)[C@H](N)CCCCN)NC(=O)[C@@H](CC(C)C)NC(=O)[C@@H](CCCCN)NC(=O)[C@@H](CCCCNC(=O)[C@@H](CC(C)C)NC(=O)[C@H](N)CCCCN)NC(=O)[C@@H](CC(C)C)NC(=O)[C@H](N)CCCCN)NC(=O)[C@@H](CC(C)C)NC(=O)[C@@H](CC(C)C)NC(=O)[C@@H](CCCCNC(=O)[C@@H](CC(C)C)NC(=O)[C@@H](CCCCN)NC(=O)[C@@H](CCCCNC(=O)[C@@H](CC(C)C)NC(=O)[C@H](N)CCCCN)NC(=O)[C@@H](CC(C)C)NC(=O)[C@H](N)CCCCN)NC(=O)[C@@H](CC(C)C)NC(=O)[C@@H](CCCCN)NC(=O)[C@@H](CCCCNC(=O)[C@@H](CC(C)C)NC(=O)[C@H](N)CCCCN)NC(=O)[C@@H](CC(C)C)NC(=O)[C@H](N)CCCCN)C(N)=O [D-T25, reference compound] (HELM PEPTIDE1{[dK].[dL].[dK].[dK].[dL].[dK].[dL].[dL].[dK].[dK].[dL].[dL].[am]}|PEPTIDE2{[dK].[dL]}|PEPTIDE3{[dK].[dL].[dK].[dK].[dL].[dK].[dL].[dL]}|PEPTIDE4{[dK].[dL]}|PEPTIDE5{[dK].[dL].[dK].[dK].[dL]}|PEPTIDE6{[dK].[dL]}|PEPTIDE7{[dK].[dL].[dK].[dK].[dL]}|PEPTIDE8{[dK].[dL]}$PEPTIDE1,PEPTIDE2,3:R3-2:R2|PEPTIDE3,PEPTIDE4,3:R3-2:R2|PEPTIDE5,PEPTIDE6,3:R3-2:R2|PEPTIDE7,PEPTIDE8,3:R3-2:R2|PEPTIDE1,PEPTIDE7,6:R3-5:R2|PEPTIDE1,PEPTIDE3,9:R3-8:R2|PEPTIDE3,PEPTIDE5,6:R3-5:R2$$$V2.0)	32	8	4	> 64	> 64	32	32 μg/mL	8 μg/mL	8 μg/mL	> 64 μg/mL	16 μg/mL	16 μg/mL	33 ± 3 (≈ 7.15 µM)	32	8	4
CC(C)C[C@@H](NC(=O)[C@@H](CC(C)C)NC(=O)[C@@H](CC(C)C)NC(=O)[C@@H](CCCCNC(=O)[C@@H](CC(C)C)NC(=O)[C@@H](CC(C)C)NC(=O)[C@@H](CCCCNC(=O)[C@@H](CCCCN)NC(=O)[C@@H](CC(C)C)NC(=O)[C@@H](CCCCNC(=O)[C@@H](CC(C)C)NC(=O)[C@H](N)CCCCN)NC(=O)[C@@H](CC(C)C)NC(=O)[C@H](N)CCCCN)NC(=O)[C@@H](CCCCN)NC(=O)[C@@H](CC(C)C)NC(=O)[C@@H](CCCCNC(=O)[C@@H](CC(C)C)NC(=O)[C@H](N)CCCCN)NC(=O)[C@@H](CC(C)C)NC(=O)[C@H](N)CCCCN)NC(=O)[C@@H](CC(C)C)NC(=O)[C@@H](CC(C)C)NC(=O)[C@@H](CCCCNC(=O)[C@@H](CCCCN)NC(=O)[C@@H](CC(C)C)NC(=O)[C@@H](CCCCNC(=O)[C@@H](CC(C)C)NC(=O)[C@H](N)CCCCN)NC(=O)[C@@H](CC(C)C)NC(=O)[C@H](N)CCCCN)NC(=O)[C@@H](CCCCN)NC(=O)[C@@H](CC(C)C)NC(=O)[C@@H](CCCCNC(=O)[C@@H](CC(C)C)NC(=O)[C@H](N)CCCCN)NC(=O)[C@@H](CC(C)C)NC(=O)[C@H](N)CCCCN)C(N)=O [D-X18] (HELM PEPTIDE1{[dK].[dL].[dK].[dL].[dK].[dK].[dL].[dL].[dK].[dL].[dL].[dL].[am]}|PEPTIDE2{[dK].[dL]}|PEPTIDE3{[dK].[dL].[dK].[dL].[dK].[dK].[dL].[dL]}|PEPTIDE4{[dK].[dL]}|PEPTIDE5{[dK].[dL].[dK].[dL].[dK]}|PEPTIDE6{[dK].[dL]}|PEPTIDE7{[dK].[dL].[dK].[dL].[dK]}|PEPTIDE8{[dK].[dL]}$PEPTIDE1,PEPTIDE2,3:R3-2:R2|PEPTIDE3,PEPTIDE4,3:R3-2:R2|PEPTIDE5,PEPTIDE6,3:R3-2:R2|PEPTIDE7,PEPTIDE8,3:R3-2:R2|PEPTIDE1,PEPTIDE7,6:R3-5:R2|PEPTIDE1,PEPTIDE3,9:R3-8:R2|PEPTIDE3,PEPTIDE5,6:R3-5:R2$$$V2.0)	32	64	32	> 64	> 64	32	32 μg/mL	64 μg/mL	32 μg/mL	>64/>64/>64 μg/mL	>64/>64/>64 μg/mL	>64/>64/>64 μg/mL	47 ± 12 (≈ 10.2 µM)	32	64	32
CC(C)C[C@@H](NC(=O)[C@@H](CC(C)C)NC(=O)[C@@H](CC(C)C)NC(=O)[C@@H](CCCCNC(=O)[C@@H](CC(C)C)NC(=O)[C@@H](CC(C)C)NC(=O)[C@@H](CCCCNC(=O)[C@@H](CCCCN)NC(=O)[C@@H](CC(C)C)NC(=O)[C@@H](CCCCNC(=O)[C@@H](CC(C)C)NC(=O)CCCCCN)NC(=O)[C@@H](CC(C)C)NC(=O)CCCCCN)NC(=O)[C@@H](CCCCN)NC(=O)[C@@H](CC(C)C)NC(=O)[C@@H](CCCCNC(=O)[C@@H](CC(C)C)NC(=O)CCCCCN)NC(=O)[C@@H](CC(C)C)NC(=O)CCCCCN)NC(=O)[C@@H](CC(C)C)NC(=O)[C@@H](CC(C)C)NC(=O)[C@@H](CCCCNC(=O)[C@@H](CCCCN)NC(=O)[C@@H](CC(C)C)NC(=O)[C@@H](CCCCNC(=O)[C@@H](CC(C)C)NC(=O)CCCCCN)NC(=O)[C@@H](CC(C)C)NC(=O)CCCCCN)NC(=O)[C@@H](CCCCN)NC(=O)[C@@H](CC(C)C)NC(=O)[C@@H](CCCCNC(=O)[C@@H](CC(C)C)NC(=O)CCCCCN)NC(=O)[C@@H](CC(C)C)NC(=O)CCCCCN)C(N)=O [D-aX18] (I: H-[Ahx][dL][dK]([dL-Ahx])[dL][dK][dK]([dK-dL-X4])[dL][dL][dK][dL][dL][dL]-NH2 / II: H-[Ahx][dL][dK]([dL-Ahx])[dL][dK][dK]([dK-dL-X4])[dL][dL]; amide I:9-II:C)	32	> 64	16	> 64	> 64	16	64/>64/64 μg/mL	64/>64/64 μg/mL	64/>64/64 μg/mL	>64/>64/>64 μg/mL	>64/>64/>64 μg/mL	>64/>64/>64 μg/mL	21 ± 2 (≈ 4.69 µM)	32	> 64	32

Source: PMC9780108, “An intrinsically disordered antimicrobial peptide dendrimer from stereorandomized virtual screening” (Cell Reports. Physical Science, 2022)
